In one assay the test system is A10 SMC. The assay is described as follows: Cell cycle distribution by flow cytometry, A10 cells. It counts as cell-based, rat. The following applies: 120 μM, 48 h. Here is the method: At 50% confluence (exponentially growing phase), A10 cells were seeded into 100 mm culture dishes and were treated with different concentrations of Avn for 48 h. Cells were then harvested by trypsin/EDTA treatment, washed with PBS and fixed with 70% ethanol at 4° C. for 1 hr. Prior to analysis, cells were washed again with PBS and stained with 1.0 mL of propidium iodide (PI) solution containing 25 μg/mL PI and 10 μg/mL RNase in PBS at 4° C. for 30 min in the dark. Cell cycle distributions were then analyzed by flow cytometry using the fluorescence-activated cell sorting (FACS) analysis. To calculate percentage of cells in respective phases of the cell cycle the DNA content frequency histograms were deconvoluted. Based on the DNA content, the cell cycle can be distinguished from G1 to S and G2-M phase.
For orientation: Flow cytometry measures light scatter and fluorescence of single cells or particles in a stream.

The test system of assay [1] is human aortic smooth muscle cells (HSMC). Description: Cell number counting, HSMC. Conditions: 120 μM. The format is cell-based.
Protocol: (§2) HSMC or A10 cells (rat embryonic aortic smooth muscle cell) were seeded into 6-well plate at a density of 0.5×10^4/well. Four hr later 120 μM of avenanthramide were added to each well. At different time points (2d, 3d and 4d) the cells were trypsinzied and the total cell number were counted using a hemocytometer. Trypan blue exclusion test was carried out to determine the cell viability.
The test system of another assay is NO production of HAEC. Description: NO production, DAF-2 fluorescence assay, HAEC. The format is cell-based, human. The following applies: 120 μM, 24 h. From the text:
In addition to its vasodilating feature, NO has antiatherosclerotic properties, such as prevention of platelet aggregation, leukocyte adhesion, smooth muscle cell proliferation, and the expression of genes involved in atherogenesis. In this study, the human aortic smooth muscle cells (HSMC) and human aortic endothelia cells (HEC) were used to determine if avenanthramides can influence the NO production level. Synthetic Av-C was used in this experiment. The quantification of NO production was performed by the 4,5 diaminofluorescein (DAF-2) fluorescence assay. Briefly, cells were seeded into 24-well plate and let them grow to 90% confluent condition. The cells were pretreated with different concentrations of Avenanthramide for 24 h. The culture medium was then changed to PBS containing 100 μM L-arginine, 1 μM bradykinin and L-NAME. Then 0.1 μM of DAF-2 was added to each well. After another 2 h of incubation, 200 μL of supernatants were transferred to black microplates and the fluorescence was measured with a fluorescence microplate reader calibrated for excitation at 485 nm and emission at 538 nm.

The next assay concerns cyclin D1. The assay is described as follows: Cyclin D1 expression Western blot, FBS-stimulated A10 cells. It counts as cell-based, rat. The following applies: 10% FBS, 20 h, dose-dependent. Here is the method: (§1) Protein from 5×10^4 cells was subjected to electrophoresis on 7.5-10% SDS-polyacrylamide gels and electro-transferred to nirocellulose membrane. Nonspecific binding was blocked by incubating with Tris-buffered saline (TBS) [137 mM NaCl, and 15 mM Tris-HCl (pH 7.6)] containing 5% non-fat milk (w/v) for 1 h at room temperature and then probed with primary antibody against p53, p21, p27, cyclin D1 and pRb overnight. After washing in TBS-Tween 20 buffer (0.075% v/v), the membranes were incubated with horseradish peroxidase-conjugated anti-IgG antibody. Proteins bound to the primary antibodies were detected with ECL detection reagents.
Cells were treated with 10% FBS in the presence and absence of substantially purified Avn-C as described above. 20 h after the addition of serum to quiescent A10 cells, the amount of cyclin D1 was measured by Western blotting using polyclonal anti-cyclin D1 antibody. β-Actin expression level was used as a loading control.
(In general: Immunoblotting shows a protein as a band on a membrane.)

The test system of assay [2] is human aortic smooth muscle cells (HSMC). The assay is described as follows: FBS-induced [3H] thymidine incorporation in HSMC. The format is cell-based. The source says: Synthetic Av-C was used in this experiment. […] The inhibitory effect of Avenanthramide was concentration-dependent.
On the technique in general: Uptake of a labelled nucleoside into DNA is a usual measure of proliferation.

Another assay concerns pRb. The assay is described as follows: pRb phosphorylation Western blot, FBS-stimulated A10 cells. The following applies: 10% FBS, 20 h. It counts as cell-based, rat. Here is the method:
as §1
Based on the above findings that treatment of A10 cells with Avn arrests the cell cycle at G1 phase, the effect of Avn treatment on cell cycle regulatory molecules involved in G1 phase of the cell cycle progression were analyzed. pRB, the product of the retinoblastoma tumor suppressor gene, is a major cell cycle regulator and its hyperphosphorylation (ppRb) is necessary for G1-S phase transition. To elucidate the mechanism by which Avn inhibits the cell cycle progression, the changes in pRB phosphorylation status were measured using anti-phospho-pRb specific antibody. FIG. 11 is a Western blot showing the effects of Avn on pRB phosphorylation. Av inhibits pRb phosphorylation in A10 cells stimulated with FBS. […]

The subject of assay [3] is A10 cells (rat embryonic aortic smooth muscle cell). The assay is described as follows: Cell number counting, A10 cells. It counts as cell-based.
Protocol: as §2
The next assay deals with p53. The assay is described as follows: p53 protein level Western blot, A10 cells. It counts as cell-based, rat. Here is the method: as §1
Induction of the tumor suppressor p53 has been implicated in the control of cell growth of SMC, and some antioxidants in green tea or red wine can increase the p53 protein expression level. Therefore, the effect of substantially purified Avn-C treatment on p53 protein levels was explored. A10 cells were seeded into 100 mm Petri dishes and grown in 10% FBS culture medium until 70% confluence. Cells were either left untreated or treated with different concentrations of Avn (0-120 uM), and the cells were harvested after 24 h. Whole cell lysates were prepared and subjected to Western blot analysis for p53 and β-actin levels.

A further assay relates to p27Kip1. The assay is described as follows: p27Kip1 expression Western blot, A10 cells. The format is cell-based, rat. The following applies: 10% FBS, 20 h. Here is the method: as §1
Cyclin-dependent kinase (cdk) inhibitors play important roles in cell cycle progression. P21cip1 is the main target of p53 medicated cell cycle inhibition. […] The effect of Avn on this CDK inhibitor p21cip1 protein expression was determined by Western blotting. A10 cells were synchronized by growning in FBS-free medium for 24 h. The cells were then stimulated with 10% FBS in the absence or presence of different concentrations of substantially purified Avn-C. After 20 h, total cell lysates were prepared and subjected to SDS-PAGE followed by Western blot analysis to detect p21cip and p27kip. β-Actin expression was used as loading control. […]

Turning to `O=C(/C=C/c1ccc(O)c(O)c1)Nc1ccc(O)cc1C(=O)O` [Avn-C, Avenanthramide C], the “population of cells in G0/G1-phase” value in the assay on A10 SMC (growing cells (control 49.7%)) stood at 66.9%. The “population of cells in S-phase” value in the assay with A10 SMC (growing cells (control about 40%)) is given as 25.7%. Also, in [1] (4 days), the “inhibition of cell growth” value is given as “more than 50%”. Also, the doubling time entry in assay [1] (HSMC) is recorded as “more than 48 hr”; in assay [3] (A10, 120 μM) it was “more than 48 hr”. Further, the “increase in NO production compared with control” value in the assay on NO production of HAEC is reported as 8.8 folds. For the same compound, the “FBS-induced cyclin D expression” value in the assay on cyclin D1 was “attenuate”. The “inhibition of cell proliferation (serum-induced DNA synthesis)” value in assay [2] (120 μM, 10% FBS, 24 h) is on record as “more than 50%”. Moreover, the IC50 in assay [2] ([3H] thymidine incorporation and cell number counting, read-out: IC50, serum-induced HASMC proliferation) is ~50 µM. For the same compound, the “expression of the total amount of pRb” value with pRb was “did not change”. For the same compound, the “serum-induced pRB phosphorylation” value with pRb (different concentrations) is on record as “dose-dependently inhibited”. For the same compound, the “reduction in cell proliferation” value in assay [3] (120 μM) amounted to 50%. Further, the “increase of p53 protein level” value in the assay with p53 is recorded as “up to 3 fold”. Moreover, the p53 protein levels result in the assay on p53 (0-120 uM, 24 h) is reported as “dose-dependent increase”. The p27Kip1 protein expression result with p27Kip1 is reported as “no significant effect”.

Source of the values: US20070254055A1, “Therapeutic Avenanthramide Compounds” (TRUSTEES OF TUFTS COLLEGE, priority 2003, published 2007).
